Results published in PubChem BioAssay (NCI).
Several values for one entry are separate records, joined by “and”; a condition that tells them apart may be missing. Identical values can stand only once.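 Method: 48-hour compound exposure of cells in 96-well plates, five concentrations, linear interpolation of endpoints. Here, GI50 denotes the concentration required for 50% inhibition of growth. At the TGI there is no net growth.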

Columns and labels:
Assay in all cases: NCI tumour cell line growth inhibition, 48 h
[1] = system: SK-MEL-2 melanoma
[2] = system: HCT-116 colon
[3] = system: HOP-92 NSCLC
[4] = system: HOP-62 NSCLC
[5] = system: NCI-H522 lung
[6] = system: SW-620 colon
[7] = system: SK-OV-3 ovarian
[8] = system: NCI-H23 lung
[9] = system: RXF 393 renal
[10] = system: PC-3 prostate
[11] = system: SK-MEL-5 melanoma
[12] = system: LOX IMVI melanoma
[13] = system: UACC-62 melanoma
[14] = system: OVCAR-8 ovarian
[15] = system: EKVX NSCLC
[16] = system: OVCAR-3 ovarian
[17] = system: HCT-15 colon
[18] = system: UO-31 renal
[19] = system: A498 renal
[20] = system: MCF7 breast
[21] = system: T-47D breast
[22] = system: SK-MEL-28 melanoma
[23] = system: SF-539 CNS
[24] = system: A549 NSCLC
[25] = system: MOLT-4 leukemia
[26] = system: HL-60(TB) leukemia
[27] = system: OVCAR-5 ovarian
[28] = system: CCRF-CEM leukemia
[29] = system: IGROV1 ovarian
[30] = system: NCI/ADR-RES ovarian
[31] = system: SNB-19 CNS
[32] = system: SR leukemia
[33] = system: HCC-2998 colon
[34] = system: SN12C renal
[35] = system: HT29 colon
[36] = system: KM12 colon
[37] = system: CAKI-1 renal
[38] = system: M14 melanoma
[39] = system: NCI-H460 lung
[40] = system: 786-0 renal
[41] = system: SF-268 CNS
[42] = system: SNB-75 CNS
[43] = system: SF-295 CNS
[44] = system: K-562 leukemia
[45] = system: RPMI-8226 leukemia
[46] = system: MDA-MB-435
[47] = system: DU-145 prostate
[48] = system: BT-549 breast
[49] = system: MDA-MB-231 breast
[50] = system: U251 CNS
[51] = system: COLO 205 colon
[52] = system: NCI-H226 lung
[53] = system: HS 578T breast
[54] = system: MALME-3M melanoma
[55] = system: OVCAR-4 ovarian
[56] = system: TK-10 renal
[57] = system: UACC-257 melanoma
[58] = system: ACHN renal

In the case of `CNc1cc(-c2cccc(OC(F)(F)F)c2)nc2ccc(N3CCCC3)cc12`, the GI50 [1] is reported as 1720 nM and 1690 nM and 1770 nM, the TGI [1] is reported as 3190 nM and 3170 nM and 3230 nM and the GI50 [2] is reported as 1300 nM and 1790 nM and 1210 nM. The TGI [2] was 2580 nM and 3320 nM and 2520 nM, the GI50 [3] was 1220 nM and 1300 nM and 1240 nM and the TGI [3] was 2550 nM and 2640 nM and 2580 nM. For the same compound, the GI50 [4] was 1620 nM and 1690 nM and 1720 nM, the TGI [4] was 3110 nM and 3160 nM and the GI50 [5] was 1680 nM and 1650 nM and 1760 nM. For the same compound, the TGI [5] was 3330 nM and 3250 nM and 3430 nM, the GI50 [6] was 1560 nM and 1840 nM and 1750 nM and the TGI [6] was 3080 nM and 3790 nM and 3600 nM. For the same compound, the GI50 [7] was 1660 nM and 1670 nM and 1740 nM, the TGI [7] was 3040 nM and 3030 nM and 3140 nM and the GI50 [8] was 1800 nM and 1940 nM and 1740 nM. The TGI [8] was 3670 nM and 3620 nM and 3320 nM, the GI50 [9] was 1800 nM and 1810 nM and 1510 nM and the TGI [9] was 3270 nM and 3280 nM and 2910 nM. For the same compound, the GI50 [10] was 1460 nM and 1610 nM and 1500 nM, the TGI [10] was 2950 nM and 3100 nM and 3010 nM and the GI50 [11] was 1740 nM and 1650 nM and 1640 nM. For the same compound, the TGI [11] was 3120 nM and 3060 nM and 3010 nM, the GI50 [12] was 1710 nM and 1740 nM and the TGI [12] was 3240 nM and 3280 nM and 3230 nM. For the same compound, the GI50 [13] was 1750 nM and 1760 nM and 1700 nM, the TGI [13] was 3360 nM and 3160 nM and 3180 nM and the GI50 [14] was 1800 nM and 1810 nM and 1820 nM. The TGI [14] was 3500 nM and 3390 nM and 3550 nM, the GI50 [15] was 1640 nM and 1570 nM and 1740 nM and the TGI [15] was 3430 nM and 3060 nM and 3420 nM. The GI50 [16] was 1690 nM and 1920 nM and 1860 nM, the TGI [16] was 3140 nM and 3600 nM and 3390 nM and the GI50 [17] was 860 nM and 1160 nM and 1300 nM. The TGI [17] was 2350 nM and 2540 nM and 2800 nM, the GI50 [18] was 1360 nM and 1320 nM and 1420 nM and the TGI [18] was 2670 nM and 2610 nM and 2740 nM. The GI50 [19] was 1170 nM and 1610 nM and 1660 nM, the TGI [19] was 2410 nM and 3000 nM and 3080 nM and the GI50 [20] was 1220 nM and 1650 nM and 1750 nM. The TGI [20] was 2880 nM and 3320 nM and 3620 nM, the GI50 [21] was 1590 nM and 1760 nM and the TGI [21] was 3510 nM and 3470 nM. The GI50 [22] was 1640 nM and 1780 nM and 1670 nM, the TGI [22] was 3030 nM and 3200 nM and 3060 nM and the GI50 [23] was 1720 nM and 1880 nM and 1780 nM. For the same compound, the TGI [23] was 3190 nM and 3450 nM and 3220 nM, the GI50 [24] was 1790 nM and 1660 nM and 1750 nM and the TGI [24] was 3260 nM and 3030 nM and 3270 nM. The GI50 [25] was 2060 nM and 1810 nM and 1560 nM, the TGI [25] was 4260 nM and 4180 nM and 3600 nM and the GI50 [26] was 2120 nM and 1960 nM and 1950 nM. For the same compound, the TGI [26] was 4650 nM and 4940 nM and 4280 nM, the GI50 [27] was 1680 nM and 2040 nM and 1870 nM and the TGI [27] was 3180 nM and 3730 nM and 3340 nM. The GI50 [28] was 2020 nM and 1960 nM and 1760 nM, the TGI [28] was 4520 nM and 4490 nM and 4010 nM and the GI50 [29] was 1570 nM and 1740 nM and 1720 nM. For the same compound, the TGI [29] was 3080 nM and 3390 nM and 3250 nM, the GI50 [30] was 1780 nM and 1890 nM and 1600 nM and the TGI [30] was 3870 nM and 3790 nM and 3190 nM. For the same compound, the GI50 [31] was 1900 nM and 1810 nM and 1880 nM, the TGI [31] was 3570 nM and 3220 nM and 3360 nM and the GI50 [32] was 310 nM and 1560 nM. The TGI [32] was 1780 nM and 4220 nM, the GI50 [33] was 1930 nM and 1940 nM and 1750 nM and the TGI [33] was 3500 nM and 3480 nM and 3230 nM. The GI50 [34] was 1760 nM and 1680 nM and 1710 nM, the TGI [34] was 3360 nM and 3140 nM and 3260 nM and the GI50 [35] was 1310 nM and 1610 nM and 1540 nM. The TGI [35] was 2690 nM and 3060 nM and 3010 nM, the GI50 [36] was 1810 nM and 1760 nM and 1890 nM and the TGI [36] was 3400 nM and 3350 nM and 3510 nM. The GI50 [37] was 1570 nM and 1530 nM and 1600 nM, the TGI [37] was 2910 nM and 2880 nM and 2970 nM and the GI50 [38] was 1640 nM and 1720 nM and 1690 nM. For the same compound, the TGI [38] was 3040 nM and 3240 nM and 3140 nM, the GI50 [39] was 1600 nM and 1750 nM and the TGI [39] was 3070 nM and 3440 nM. The GI50 [40] was 1560 nM and 1710 nM and 1550 nM, the TGI [40] was 2910 nM and 3220 nM and 2970 nM and the GI50 [41] was 1940 nM and 1880 nM and 1870 nM. The TGI [41] was 3510 nM and 3770 nM, the GI50 [42] was 1700 nM and 1480 nM and the TGI [42] was 3120 nM and 2930 nM. The GI50 [43] was 1610 nM and 1750 nM and 1680 nM, the TGI [43] was 2980 nM and 3200 nM and 3090 nM and the GI50 [44] was 884 nM. For the same compound, the TGI [44] was 3610 nM, the GI50 [45] was 1710 nM and the TGI [45] was 4190 nM. For the same compound, the GI50 [46] was 1590 nM and 1710 nM and 1630 nM, the TGI [46] was 2970 nM and 3190 nM and 3090 nM and the GI50 [47] was 1610 nM and 1840 nM and 1880 nM. For the same compound, the TGI [47] was 3120 nM and 3500 nM and 3400 nM, the GI50 [48] was 2140 nM and 1940 nM and 1790 nM and the TGI [48] was 6170 nM and 3650 nM and 3330 nM. For the same compound, the GI50 [49] was 1720 nM and 1700 nM and 1460 nM, the TGI [49] was 3230 nM and 3140 nM and 2950 nM and the GI50 [50] was 1580 nM and 1690 nM and 1670 nM. The TGI [50] was 3070 nM and 3080 nM and 3110 nM, the GI50 [51] was 1840 nM and 1810 nM and the TGI [51] was 3580 nM and 3290 nM. For the same compound, the GI50 [52] was 2490 nM and 1880 nM, the TGI [52] was 4580 nM and 3770 nM and the GI50 [53] was 1870 nM. The TGI [53] was 3950 nM, the GI50 [54] was 1780 nM and 1920 nM and 1700 nM and the TGI [54] was 3240 nM and 3400 nM and 3160 nM. The GI50 [55] was 1630 nM and 1690 nM and 1750 nM, the TGI [55] was 3330 nM and 3190 nM and 3360 nM and the GI50 [56] was 1940 nM and 1780 nM and 1800 nM. The TGI [56] was 3390 nM and 3200 nM and 3240 nM, the GI50 [57] was 1890 nM and 1770 nM and 1860 nM and the TGI [57] was 3370 nM and 3160 nM and 3340 nM. The GI50 [58] was 1610 nM and 1630 nM and 1740 nM and the TGI [58] was 2960 nM and 2980 nM and 3120 nM.
